Laboratory results published in PMC4393083, “Antiviral Activity and Possible Mechanism of Action of Constituents Identified in Paeonia lactiflora Root toward Human Rhinoviruses” (PLoS ONE, 2015).

Assays:
IFN-β = IFN-β mRNA expression, qRT-PCR in MRC5; type: cell-based, human; settings: MRC5, 2 days after HRV-2 or HRV-4 infection; 100 μg/mL PA, 20 μg/mL PGG
Procedure: (§1) To evaluate the level of gene expression, real-time qRT-PCR with SYBR Green dye was carried out. HRV-2 or HRV-4 infected and noninfected cultures of MRC5 monolayers grown in 25 cm^2 cell culture flasks (Corning, NY) were treated with 100 μg/mL PA or 20 μg/mL PGG. After incubation at 37°C and 5% CO2 for 2 days, total RNA was extracted from the culture cells using the RNeasy Plus Mini Kit (Qiagen, Hilden, Germany) according to the manufacturer’s instructions. Contaminated genomic DNA was removed using RQ1 RNase-free DNase (Promega, Madison, WI). Complementary DNA (cDNA) was synthesized using 1 μg total RNA through a reverse transcription reaction using the SuperScript First-Strand Synthesis Kit (Invitrogen, Carlsbad, CA). […] The PCR conditions were as follows: 50°C for 2 min, 95°C for 10 min, and then 50 cycles of 95°C for 15 s and either 60°C [β2-microglobulin (B2M), interleukin (IL)-6, IL-8, LDLR, ICAM-1, HRV-2, and HRV-4] or 58°C (B2M and IL-1β) or 55°C [B2M, Toll-like receptor 3 (TLR3), tumor necrosis factor (TNF), and interferon beta (IFNβ)] for 30 s. mRNA expression level of target gene was normalized to mRNA expression level for the housekeeping gene B2M and analyzed by the 2^–ΔΔCT method using StepOne Software v2.1 and DataAssist Software (Applied Biosystems). […]

sICAM-1 = experiment: Soluble ICAM-1 ELISA in MRC5 culture supernatants; type: cell-based, human; settings: HRV-2 or HRV-4 infected MRC5 cultures, 100 μg/mL PA, 20 μg/mL PGG
Procedure: (§2) The expressions of ICAM-1 and LDLR were examined using real-time qRT-PCR and Western blot. Furthermore, concentrations of soluble ICAM-1 (sICAM-1) in cell-free culture supernatants 2 days after treatment were measured using a sICAM-1 ELISA Kit (Pierce Biotechnology, Rockford, IL) according to the manufacturer’s instructions. The sensitivities of the assays were 0.3 ng/mL. The concentrations of ICAM-1 in the test samples were determined from OD values using standard curve of each assay.

mICAM-1 = experiment: Western blot of mICAM-1 in MRC5 cells; type: cell-based, human; settings: MRC5, 2 days, HRV-2 or HRV-4, 100 μg/mL PA, 20 μg/mL PGG
Procedure: Cell lysates from infected and noninfected MRC5 cultures 2 days after incubation with or without test compounds were obtained in RIPA buffer and 1% mammalian cell protease inhibitor cocktail according to the manufacturer’s instructions. Working dilutions of primary antibodies were dilulted 500, 2000, and 1000 times for anti-ICAM-1, anti-LDLR, and anti-actin antibodies, respectively. Working dilutions of secondary antibody was 1000, 1000, and 800 for anti-ICAM-1, anti-LDLR, and anti-actin, respectively. Ten micrograms of cell lysates from different treatments were mixed with an equal volume of 5× Laemmli sample buffer, boiled in 10 min, and resolved by electrophoresis in 11% sodium dodecyl sulfate-polyacrylamide gels (SDS-PAGE). […] Differences in protein expressions were quantified using a Molecular Imager Gel Doc XR system (Bio-Rad, Hercules, CA) and normalized to actin expression on the same membrane.
as §2, with “The sensitivities of the assays were 0.3 ng/mL.” left out

HRV-2 = experiment: Real-time qRT-PCR of HRV-2 RNA replication in MRC5 cells; type: cell-based, human rhinovirus; settings: MRC5, 2 days after infection; 100 μg/mL PA, 20 μg/mL PGG; vs untreated cultures
Procedure: as §1

IL-6 = IL-6 ELISA in MRC5 supernatants; type: cell-based, human; settings: for IL-6 concentrations in infected cultures: HRV-2 or HRV-4 infected MRC5 supernatants, 2 days, 100 μg/mL PA, 20 μg/mL PGG
Procedure: The concentrations of IL-6, IL-8, and TNF in cell-free culture supernatants 2 days after treatment were measured using specific ELISA. OptEIA IL-6, IL-8, and TNF ELISA kits (BD Biosciences, San Diego, CA) were used for the assays. The sensitivities of these ELISA assays were 2.2, 0.8, and 2.0 pg/mL, respectively. The concentrations of IL-6, IL-8, and TNF in the test samples were determined from OD values using standard curve of each assay.

SMILES	effect on HRV-induced IFN-β mRNA expression (IFN-β)	sICAM-1 levels in supernatants vs cultures without treatment (sICAM-1)	mICAM-1 protein levels vs cultures without treatment (mICAM-1)	reduction of HRV-2 RNA replication level (HRV-2) [fold]	IL-6 concentrations in infected cultures (IL-6)	IL-6 concentrations in mock cultures vs mock cultures without treatment (IL-6; noninfected MRC5 supernatants)
O=C(OC[C@H]1O[C@@H](OC(=O)c2cc(O)c(O)c(O)c2)[C@H](OC(=O)c2cc(O)c(O)c(O)c2)[C@@H](OC(=O)c2cc(O)c(O)c(O)c2)[C@@H]1OC(=O)c1cc(O)c(O)c(O)c1)c1cc(O)c(O)c(O)c1 [PGG, 1,2,3,4,6-penta-O-galloyl-β-D-glucopyranose]	meaningfully inhibited	significantly lower	similar	14.3	reduced	–
COc1ccc(C(C)=O)c(O)c1 [PA, paeonol]	meaningfully inhibited	significantly lower	similar	30.1	reduced	higher
